Measured values taken from US6559281B1, “Non-naturally occurring synthetic lytic peptides” (priority 1993, dated 2003).
Where two headings read alike, the source gives them in different places.

Key:
Pseudomonas aeruginosa = assay type: cell-based; details: clinical isolate, 37° C. for one hour; for # of Survivors: minus peptide control 100,000; for % of Control: survivors
Method: (§1) In this test, antibiotic resistant clinical isolates of Pseudomonas aeruginosa and Staphylococcus aureus were obtained. The lytic peptide bioassay was performed as described below.
(§2) A flask containing 49 ml of nutrient broth was inoculated with 1 ml of an overnight culture of the test bacteria. The culture was allowed to grow to mid-log phase at 37° C. with shaking (approximately 4 hours). When the cells reached the correct density, the cells were transferred to a sterile tube and centrifuged for 10 minutes at 3000 rpm. The pellet was resuspended in 3 ml of phosphate buffer and centrifuged for 10 minutes at 3000 rpm. The pellet was resuspended once again in sufficient (but measured) volume to calculate the absorbance of the suspension at 600 nm. Using the resulting absorbance and a previously constructed growth curve, the required dilution to achieve a concentration of 10^6 cells/ml was determined.
(§3) The test culture tubes for the bioassay contained 800 μl of phosphate buffer, pH 7.0, 100 μl of cells at 10^6 cells/ml and 100 μl of peptide solution (10 μM to 1 mM). The final concentration of peptide in the assay was from 1 μM to 100 μM. A reaction system minus peptide was included as a control. The tubes were incubated at 37° C. for one hour.
(§4) After the incubation period two 1:10 serial dilutions in phosphate buffer were made for each culture(three 1:10 serial dilutions for the control culture). […] of each dilution was spread on a nutrient agar plate, in duplicate and incubated overnight at 37° C. The following day, the number of colonies on the control plates was counted to determine the starting number of cells in the assay tubes. The number of cells surviving the assay in the presence of peptide was also counted.

Staphylococcus aureus = experiment: In vitro lysis of pathogenic bacteria (lytic peptide bioassay, colony count of survivors); assay type: cell-based; details: clinical isolate, 37° C. for one hour; for # of Survivors: minus peptide control 50,000; for % of Control: survivors
Method: as §1, §2, §3, §4

Substance: Ala Val Lys Arg Val Gly Arg Arg Leu Lys Lys Leu Ala Arg Lys Iso Ala Arg Leu Gly Val Ala Phe [SEQ ID NO. 14]
- # of Survivors (Pseudomonas aeruginosa; peptide 1 μM): 100,000
- # of Survivors (Pseudomonas aeruginosa; peptide 10 μM): 2
- % of Control (Pseudomonas aeruginosa; peptide 1 μM): 100%
- % of Control (Pseudomonas aeruginosa; peptide 10 μM): 0.002%
- # of Survivors (Staphylococcus aureus; peptide 1 μM): 50,000
- # of Survivors (Staphylococcus aureus; peptide 10 μM): 2,299
- % of Control (Staphylococcus aureus; peptide 1 μM): 100%
- % of Control (Staphylococcus aureus; peptide 10 μM): 4.6%
